PMC2363502
Entries after “also recorded” stand apart in the source; their conditions may differ.

Columns and labels:
[1] = tested on: solid tumours; assay: phase I clinical efficacy (UICC tumour response, markers, FDG-PET); assay type: in vivo, human
Description: (§1) Preclinical testing confirmed promising antiproliferative activity. […] Physical examination was performed weekly. […] N-Acetyl-SPERMINE SSAT SSAT […] Analysis was descriptive only. […] Patient characteristics are described in Table 1. […] Three patients completed the full six cycles of treatment. Of these, two received the combination 5FU/SAM486A from cycle 3 onwards. Five patients recorded a best response of stable disease. Of these, three received the combination 5FU/SAM486A from cycle 3 onwards (see below).

[2] = tested on: variety of different tumour cell lines; design: method as in H Mett, unpublished data; conditions: including multi-drug-resistant and highly metastatic variants; ref H Mett, unpublished data; cited from earlier work
[3] = phase I pharmacokinetics in plasma and urine; assay type: in vivo, human
Description: as §1

[4] = short-term single or repeat bolus injections of high doses; preclinical background, ref not given; cited from earlier work
[5] = design: method as in data on file; conditions: rats and dogs; ref data on file; cited from earlier work
[6] = tested on: tumour; design: method as in Gschaidmeier et al, 1999, O'Reilly et al, 2000; conditions: in vitro and in vivo; ref Gschaidmeier et al, 1999, O'Reilly et al, 2000; cited from earlier work
[7] = tested on: xenograft or orthotopic tumour; design: method as in earlier work; conditions: 5- 25 mg kg-1 day-1 intraperitoneally, ref Regenass et al, 1994, Dorhout et al, 1995, Gutman et al, Manni et al, Delworth et al, 1997, Svensson et al, Mi et al, 1998; cited from earlier work
[8] = tested on: polyamine pools and SAMDC activity in leukocytes; assay: polyamines and SAMDC activity in peripheral blood leukocytes; assay type: in vivo, human
Description: as §1

[9] = phase I safety and tolerability, 120 h continuous infusion every 4 weeks
[10] = Table 3, 6 mg m-2 cycle-1, 4 patients studied
[11] = Table 3, 12 mg m-2 cycle-1, 3 patients studied
[12] = Table 3, 24 mg m-2 cycle-1, 3 patients studied
[13] = Table 3, 400 mg m-2 cycle-1, 6 patients studied
[14] = Table 3, 550 mg m-2 cycle-1, 6 patients studied
[15] = Table 3, 700 mg m-2 cycle-1, 5 patients studied
[16] = Table 3, all dose levels, 39 patients
[17] = Table 3, all dose levels, 39 patients, incl. combination
[18] = Table 4, after infusion (day 6-28), 550 mg m-2 cycle-1, 6 patients studied

Compound: N=C(N)c1cccc2c1CCC2=NN=C(N)N [SAM486A]
- objective tumour response ([1]; 39 patients): No objective remission; also recorded: No complete or partial responses
- patients with stable disease as best response ([1]; 39 patients): five
- tumour markers (CEA, CA 15.3) post-baseline ([1]; six evaluable patients): No trends towards decreases
- FDG-PET result after first 5-day infusion ([1]; two patients, 400 mg m-2 cycle-1): stable disease at best
- growth inhibitory IC50 [2]: micromolar range
- mean terminal elimination t1/2 ([3]; all patients included in the analysis, standard deviation 23.1 h): 48.6 h
- fraction of total drug administered excreted in urine ([3]; day 1): Approximately 3%
- plasma SAM486A concentrations ([3]; first 10 patients at lowest dose levels, significant portions of sampling interval): below the limit of quantitation
- terminal half-life (approximate) ([3]; plasma, patients): approximately 2 days
- acute toxicity findings [4]: acute cardiovascular and respiratory
- metabolism and excretion [5]: hardly metabolized and predominantly renally excreted
- plasma clearance and distribution [5]: multi-exponential with extensive distribution outside the plasma compartment
- effect of combination with 5FU and with cisplatin [6]: Additive to synergistic effects
- effect on tumour growth [7]: inhibited tumour growth
- evaluable patients with marginal trend to increased SAMDC activity ([8]; 400 mg m-2 cycle-1 and above): eight of 13
- evaluable patients with trend to increased putrescine ([8]; 400 mg m-2 cycle-1 and above): 10 of the 11
- evaluable patients with trend to increased putrescine ([8]; 3-200 mg m-2 cycle-1): six of the 12
- evaluable patients with marginal trend to increased SAMDC activity ([8]; doses up to 200 mg m-2 cycle-1): nine of 18
- expected concomitant decrease in spermidine and spermine ([8]; peripheral blood leukocytes): could not be detected
- patients with grade 4 granulocytopenia ([9]; 550 mg m-2 cycle-1, six patients): three
- maximum tolerated dose (MTD) ([9]; 120 h continuous infusion every 4 weeks): 400 mg m-2 cycle-1
- correlation coefficient AUC vs granulocytopenia ([9]; Figure 4): 0.6931
- correlation coefficient dose vs granulocytopenia ([9]; Figure 4): 0.5814
- Haemoglobin grade 1-4, no. of patients ([9]; Table 3, 3 mg m-2 cycle-1, 3 patients studied): 2 patients
- Haemoglobin grade 1-4, no. of patients [9, 10]: 2 patients
- Thrombocytes (platelets) grade 1-4, no. of patients [9, 10]: 1 patients
- Thrombocytes grade 3-4, no. of patients [9, 10]: 1 patients
- Haemoglobin grade 1-4, no. of patients [9, 11]: 2 patients
- Haemoglobin grade 3-4, no. of patients [9, 11]: 1 patients
- Haemoglobin grade 1-4, no. of patients [9, 12]: 3 patients
- Haemoglobin grade 3-4, no. of patients [9, 12]: 1 patients
- Haemoglobin grade 1-4, no. of patients ([9]; Table 3, 48 mg m-2 cycle-1, 4 patients studied): 2 patients
- Haemoglobin grade 1-4, no. of patients ([9]; Table 3, 96 mg m-2 cycle-1, 3 patients studied): 1 patients
- Leukocytes (WBC) grade 1-4, no. of patients ([9]; Table 3, 200 mg m-2 cycle-1, 2 patients studied): 1 patients
- Granulocytes (AGC) grade 1-4, no. of patients [9, 13]: 2 patients
- Granulocytes (AGC) grade 3-4, no. of patients [9, 13]: 1 patients
- Haemoglobin grade 1-4, no. of patients [9, 13]: 3 patients
- Leukocytes (WBC) grade 1-4, no. of patients [9, 13]: 2 patients
- Granulocytes (AGC) grade 1-4, no. of patients [9, 14]: 4 patients
- Granulocytes (AGC) grade 3-4, no. of patients [9, 14]: 4 patients
- Haemoglobin grade 1-4, no. of patients [9, 14]: 4 patients
- Haemoglobin grade 3-4, no. of patients [9, 14]: 1 patients
- Leukocytes (WBC) grade 1-4, no. of patients [9, 14]: 5 patients
- Leukocytes (WBC) grade 3-4, no. of patients [9, 14]: 3 patients
- Thrombocytes (platelets) grade 1-4, no. of patients [9, 14]: 1 patients
- Thrombocytes grade 3-4, no. of patients [9, 14]: 1 patients
- Granulocytes (AGC) grade 1-4, no. of patients [9, 15]: 4 patients
- Granulocytes (AGC) grade 3-4, no. of patients [9, 15]: 3 patients
- Haemoglobin grade 1-4, no. of patients [9, 15]: 2 patients
- Haemoglobin grade 3-4, no. of patients [9, 15]: 1 patients
- Leukocytes (WBC) grade 1-4, no. of patients [9, 15]: 4 patients
- Leukocytes (WBC) grade 3-4, no. of patients [9, 15]: 3 patients
- Thrombocytes (platelets) grade 1-4, no. of patients [9, 15]: 2 patients
- Haemoglobin grade 1-4, Total (%) [9, 16]: 21 (54) patients (%)
- Haemoglobin grade 3-4, Total (%) [9, 16]: 4 (10) patients (%)
- Thrombocytes grade 3-4, Total (%) [9, 16]: 2 (5) patients (%)
- Granulocytes (AGC) grade 1-4, Total (%) [9, 17]: 12 (31) patients (%)
- Granulocytes (AGC) grade 3-4, Total (%) [9, 17]: 9 (23) patients (%)
- Leukocytes (WBC) grade 1-4, Total (%) [9, 17]: 14 (36) patients (%)
- Leukocytes (WBC) grade 3-4, Total (%) [9, 17]: 7 (18) patients (%)
- Fatigue grade 3-4, no. of patients ([9]; Table 4, after infusion (day 6-28), 400 mg m-2 cycle-1, 6 patients studied): 1 patients
- Anorexia grade 3-4, no. of patients [9, 18]: 1 patients
- Atrial fibrillation grade 3-4, no. of patients [9, 18]: 1 patients
- Condition aggravated grade 3-4, no. of patients [9, 18]: 1 patients
- Dementia grade 3-4, no. of patients ([9]; Table 4, after infusion (day 6-28), 700 mg m-2 cycle-1, 5 patients studied): 1 patients
